Experimental data reported in ChEMBL document CHEMBL1201862, “PubChem BioAssay data set” (2004).
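Where inhibition never reached the appropriate level, the endpoint shown equals the highest concentration tested. Otherwise, values were interpolated linearly from a five-concentration, 48-hour dose response in 96-well plates. Abbreviation: GI50, concentration required for 50% inhibition of growth.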 Activity calls are given as the source filed them. Cut-off read from the data, not from the text of the source: active = GI50 up to about 1.1 µM and inactive = higher.

What was measured:
Assay in all cases: NCI anticancer screen, dose series, 48 h
SK-MEL-28 = test system: SK-MEL-28
HCC 2998 = test system: HCC 2998
A498 = test system: A498
IGROV-1 = test system: IGROV-1
RXF 393 = test system: RXF 393
HT-29 = test system: HT-29
HOP-62 = test system: HOP-62
A549 = test system: A549
K562 = test system: K562
NCI-H460 = test system: NCI-H460
U-251 = test system: U-251
UO-31 = test system: UO-31
M14 = test system: M14
SNB-19 = test system: SNB-19
SF-268 = test system: SF-268
NCI-H522 = test system: NCI-H522
HL-60 = test system: HL-60

Measured: GI50

CC(=O)NC(CCCN(Cc1ccccc1)C(=O)N(C)N=O)C(=O)NCc1ccccc1 (stereo not drawn)
inactive: SK-MEL-28 > 100 µM | HCC 2998 > 100 µM | A498 > 100 µM | IGROV-1 > 100 µM | RXF 393 > 100 µM | HT-29 > 100 µM | HOP-62 > 100 µM | A549 > 100 µM | K562 > 100 µM | NCI-H460 > 100 µM | U-251 > 100 µM | UO-31 > 100 µM | M14 > 100 µM | SNB-19 > 100 µM | SF-268 95.3 µM | NCI-H522 37.1 µM

CC#C[C@@]1(O)CCCCC1O (stereo partly drawn)
inactive: SK-MEL-28 > 100 µM | HCC 2998 > 100 µM | A498 > 100 µM | IGROV-1 > 100 µM | RXF 393 > 100 µM | HT-29 > 100 µM | HOP-62 > 100 µM | A549 > 100 µM | HL-60 > 100 µM | K562 > 100 µM | NCI-H460 > 100 µM | U-251 > 100 µM | UO-31 > 100 µM | M14 > 100 µM | SNB-19 > 100 µM | SF-268 > 100 µM | NCI-H522 > 100 µM

Cc1ccc(C[P+]2(c3ccccc3)CCCCC2)cc1.[O-][Cl+3]([O-])([O-])[O-]
inactive: SK-MEL-28 27.7 µM | HCC 2998 21 µM | A498 > 100 µM | IGROV-1 21.3 µM | RXF 393 > 100 µM | HT-29 21.1 µM | HOP-62 99.8 µM | A549 73.5 µM | HL-60 10.8 µM | K562 34.8 µM | NCI-H460 37.6 µM | U-251 12.5 µM | UO-31 > 100 µM | M14 25.8 µM | SNB-19 32.3 µM | NCI-H522 16.1 µM

COc1ccc2ccc([Se]c3ccc4ccc(OC)cc4c3)cc2c1
inactive: SK-MEL-28 > 100 µM | HCC 2998 > 100 µM | A498 > 100 µM | IGROV-1 > 100 µM | RXF 393 70 µM | HT-29 50.1 µM | HOP-62 > 100 µM | A549 > 100 µM | HL-60 > 100 µM | K562 > 100 µM | NCI-H460 89.1 µM | U-251 29.9 µM | UO-31 23.7 µM | M14 > 100 µM | SNB-19 23.3 µM | SF-268 61.1 µM | NCI-H522 84.5 µM

O=C(Cc1nc2ccccc2o1)C(=O)Nc1ccccc1C(F)(F)F
inactive: HCC 2998 > 100 µM | A498 > 100 µM | IGROV-1 > 100 µM | RXF 393 > 100 µM | HT-29 > 100 µM | HOP-62 > 100 µM | A549 > 100 µM | HL-60 > 100 µM | K562 > 100 µM | NCI-H460 > 100 µM | U-251 > 100 µM | UO-31 > 100 µM | M14 > 100 µM | SNB-19 > 100 µM | SF-268 > 100 µM | NCI-H522 > 100 µM

C[Si](C)(C)C1(Sc2ccccc2)SCCCS1
inactive: SK-MEL-28 43.3 µM | HCC 2998 31.5 µM | A498 40.6 µM | IGROV-1 41.8 µM | RXF 393 32.5 µM | HT-29 38.5 µM | HOP-62 29.7 µM | A549 31.9 µM | HL-60 12 µM | K562 31.1 µM | NCI-H460 52.8 µM | U-251 38.4 µM | UO-31 6.27 µM | M14 49.8 µM | SNB-19 36.9 µM | SF-268 31.8 µM | NCI-H522 17.9 µM

CCCCCc1cc(OC(=O)c2c(O)cc(OC)cc2CCCCC)cc(O)c1C(=O)O
inactive: SK-MEL-28 17.1 µM | HCC 2998 15.3 µM | A498 19.8 µM | IGROV-1 16.6 µM | RXF 393 16 µM | HT-29 14.2 µM | HOP-62 16.4 µM | A549 17.8 µM | HL-60 24.9 µM | K562 26.8 µM | NCI-H460 15.9 µM | U-251 15.2 µM | UO-31 13.6 µM | M14 20.4 µM | SNB-19 12.7 µM | SF-268 13.2 µM | NCI-H522 11.1 µM

CC(=O)Oc1c2c(c(O)c3ccccc13)C(n1cnc3c(ncn3C3OC(CO)C4OC(C)(C)OC43)c1=N)CCC2 (stereo not drawn)
inactive: SK-MEL-28 17.5 µM | HCC 2998 15 µM | A498 17.3 µM | IGROV-1 20.2 µM | RXF 393 18.3 µM | HT-29 13.2 µM | HOP-62 16.7 µM | A549 19.1 µM | HL-60 4.49 µM | K562 6.84 µM | NCI-H460 23.3 µM | U-251 18.9 µM | UO-31 16.2 µM | SNB-19 16 µM | SF-268 16.4 µM | NCI-H522 5.87 µM

CCN(CC)CC(C)C(=O)/C=C/c1ccc(C)cc1 (stereo not drawn)
inactive: SK-MEL-28 1.85 µM | HCC 2998 3.13 µM | A498 4.74 µM | IGROV-1 2.2 µM | RXF 393 2.19 µM | HT-29 1.85 µM | HOP-62 18.4 µM | A549 3.77 µM | HL-60 3.48 µM | K562 3.24 µM | NCI-H460 4.83 µM | U-251 1.76 µM | UO-31 13.5 µM | M14 2.2 µM | SNB-19 16.7 µM | SF-268 2.1 µM
